The values below are quoted from earlier work in patent US12624058B2, “Promoiety strategy to enhance drug activity” (UNIVERSITY OF SOUTHERN CALIFORNIA, priority 2020, dated 2026).

In general, EC50 refers to the midpoint of the concentration-response curve.

The subject of one series is multiple Ad types. The following applies: cell culture; read-out: EC50, replication of multiple Ad types.
The next series deals with Ad5. Particulars: immunosuppressed Syrian hamster model.
The conditions of series [1]: in vivo.
For series [2] the following is noted: in vivo. The source holds these as a separate data set.

The structures appear in SMILES notation. Where only a bound is given, the exact number is not on record here.

Regarding `CCCCCCCCCCCCCCCCOCCCOP(=O)(O)CO[C@H](CO)Cn1ccc(N)nc1=O` [BCV], in the series with multiple Ad types, the EC50 was roughly 20 nM. In addition, in the series with Ad5, the “efficacy against Ad5 replication and pathogenesis” value was “effective”. Also, in series [1], the nephrotoxicity entry was “little or no nephrotoxicity”. Also, in the series on Ad viremia (phase II clinical trial), the GI side effect result was “symptomatic GI irritation was observed”. The “reduction of Ad viremia” value with Ad viremia (preemptive treatment, pediatric and adult patients) is “reduced Ad viremia in some of these patients however, the result was not statistically significant”.
As for `Nc1ccn(C[C@@H](CO)OCP(=O)(O)O)c(=O)n1` [CDV, (S)-1-(3-hydroxy-2-phosphonomethoxypropyl)cytosine], the oral bioavailability in series [2] was less than 5%. Moreover, in the series with Ad5, the “efficacy against Ad5 replication and pathogenesis” value was “effective”. Moreover, the nephrotoxicity result in series [1] is on record as “causes nephrotoxicity”.
